Columns and labels:
Panc02 cell spheroids = test: MTT cytotoxicity assay, Panc02 cell spheroids culture; assay type: cell-based, murine
Protocol: (§1) The cytotoxic effect of the chemotherapeutic drug Gemcitabine (LC Laboratories, Woburn, Mass., USA) on Panc02 cell spheroids culture was compared to the cytotoxic effect on monolayer culture. For the cytotoxic assay, 1×10^4 cells suspended in complete medium were seeded in each well of a 96-well plate. Four (4)-day-old Panc02 spheroids were transferred to a new 96 ultra-low attachment well plate. The next day, the cells and spheroids were treated with different concentrations of Gemcitabine solution (0, 0.1, 1, 10, 25, 50, 100 μM) in sextuplicate wells. After incubating the cells with Gemcitabine for 48 h, 20 microliter (μl) of 3-(4,5-dimethylthiazol-2-yl)-2,5-diphenyltetrazolium bromide (MTT) solution (5 mg/ml) was added into each well, and the cells were incubated for 4 hours. […] Finally, absorbance was recorded at 570 nm using the Epoch™ microplate spectrophotometer (Bio-Tek Instruments, USA). […]
(§2) Parallel experiments were set with traditional 2D monolayer cell cultures to examine differential response of 2D and 3D cell cultures. Cell number and viability were measured using MTT assay after 2 days of Gemcitabine treatment. The IC50 value was calculated. […]

Panc02 cells = test: MTT cytotoxicity assay, Panc02 monolayer culture; assay type: cell-based, murine
Protocol: as §1, §2

**Q.** What does the source list for `Nc1ccn([C@@H]2O[C@H](CO)[C@@H](O)C2(F)F)c(=O)n1` [Gemcitabine]?
**A.** response to the drug from regression curves, spheroids (Panc02 cell spheroids; 0-100 μM Gemcitabine, 48 h): dose-dependent response; IC50 (Panc02 cell spheroids; Mus musculus, 4-day-old acoustically assembled Panc02 3D spheroids, 48 h (2 days) Gemcitabine treatment): 18.38 ± 0.09 µM; response to the drug from regression curves, monolayer (Panc02 cells; 0-100 μM Gemcitabine, 48 h): dose-dependent response; IC50 (Panc02 cells; Mus musculus, Panc02, 2D monolayer culture, 48 h (2 days) Gemcitabine treatment): 9.99 ± 0.07 µM

From patent publication US12590277B2, “High-throughput acoustofluidic fabrication of cell spheroids” (The Trustees of Indiana University, priority 2019, dated 2026)
